According to patent US7687079B2, “Methods of treating ileus” (priority 2002, dated 2010):
Entries after “also recorded” stand apart in the source; their conditions may differ.

How the values were obtained:
serum IL-6 = serum IL-6 ELISA after SITx; assay type: in vivo, rat
Procedure: Serum samples were taken sequentially at 1, 4 and 24 hours after reperfusion and stored at −80° C. until evaluation. Serum cytokine concentrations, including IL-6, IL-10 and TNFα, were determined using rat enzyme-linked immunoassay (ELISA) kits as described by the manufacturer (R & D, Cambridge, Mass.).
FIG. 6 is a set of bar graphs that illustrate the effect of CO on serum IL-6 and nitrate/nitrite concentrations in animals receiving intestinal grafts at one and four hours after reperfusion. […] Serum IL-6 concentrations were determined using a rat enzyme-linked immunoassay (ELISA) kit (R&D, Cambridge, Mass.). The serum nitrite/nitrate levels, the stable end products of NO metabolism, were measured using a commercially available test kit (Cayman, Ann Arbor, Mich.). In this assay system, nitrate is reduced to nitrite using nitrate reductase, and nitrite concentration of the sample was subsequently measured using the Griess reaction. Serum IL-6 and nitrite/nitrate levels in animals subjected SITx and treated with air increased over time.

[1] = system: total nitrite (NO production); experiment: total nitrite release from muscularis extracts (index of iNOS activity); assay type: in vivo, mouse; settings: IM + CO vs IM, 24 hours after surgery
Procedure: Protein and Nitric Oxide Determinations. The small bowel of control and mice subjected to intestinal manipulation was removed under sterile conditions, 4 or 24 hours post-operatively, leaving the colon in situ. The small intestine was transferred to a beaker containing chilled Hanks balanced salt solution (Sigma, St. Louis, Mo.) with 200 U/ml penicillin G and 200 μg/ml streptomycin (HBSS), the lumen flushed, and the tissue transferred to a second beaker of HBSS. The muscularis was harvested as described above for real time RT-PCR. Tissues were maintained under sterile conditions at 3 to 5° C. throughout the harvesting procedure. Isolated muscularis was blotted onto sterile gauze, and the wet weight determined to obtain aliquots of 40 to 60 mg. […]
After the incubation period, the muscle tissue was pelleted, and aliquots of culture medium were frozen in liquid nitrogen and stored at −80° C. The levels of IL-6, IL-1β, PGE2, and IL-10 proteins secreted into the culture medium were determined using commercially available ELISA kits (R&D Systems, Minneapolis, Minn.) according to the manufacturer's instructions. […] Nitrate/nitrate levels were measured 24 hrs postoperatively using commercially available test kit (Oxford Biomedical Research, Oxford, Mich.) and quantified according to the manufacturer's directions. […]

[2] = system: MPO-positive leukocytes in intestinal muscularis; experiment: myeloperoxidase histochemistry, leukocyte recruitment into intestinal muscularis after SITx; assay type: in vivo, rat
Procedure: Muscularis whole mounts were prepared from the mid small intestine collected 24 hours post-operatively. Segments of intestine were immersed in KRB in a Sylgaard™-lined glass dish and pinned without stretching along the mesenteric border. The length and width of the segments were measured with a caliper. The […] was then opened along the mesenteric border and stretched to 150% of the length and 250% of the width. The mucosa and submucosa were removed using fine forceps, and the remaining tissue fixed in 100% denatured ethanol for 30 minutes. […] Tissues were mounted on glass slides using Gel/Mount™ (Biomedia Corp., Foster City, Calif.), cover-slipped and inspected by light microscopy (Nikon FXA, Fryer, Huntley, Ill.) at a magnification of 200×. Numbers of MPO-positive PMN's infiltrating the muscularis extemae were determined from the mean counts collected from five to six adjacent optical fields centered between the mesenteric and anti-mesenteric borders.

[3] = system: rats with ileus induced by mild manipulation of the small intestine; experiment: Example 4 intestinal transit (geometric center) after IM, CO pre-treatment; assay type: in vivo, rat
Procedure: Ileus was induced by mild manipulation of the small intestine (IM). Rats were exposed to decreasing concentrations of CO (250, 125, 75, 30 ppm) in air for a period of either 1 hr or 3 hr prior to laparotomy (n=6). Results were compared to those obtained using previously established protocols of exposure to CO at 250 ppm 1 hr before and for 24 hr after laparotomy. Gastrointestinal function was assessed in vivo by determining intestinal transit from the distribution throughout the GI tract of orally fed fluorescein labeled dextran. The median distribution of the labeled dextran was determined for statistical comparison by calculating the geometric center (GC).

[C-]#[O+] [CO, carbon monoxide]
serum IL-6 level (serum IL-6; SITx + CO vs SITx with air): significantly decreased; also recorded: significantly lower
Serum IL-6 (serum IL-6; SITx + CO, 4 hours after reperfusion, Table 2): 1439 pg/mL
surgically induced increase in nitrite release [1]: significantly inhibited
MPO-positive cells ([2]; CO-treated control rats (unoperated)): rare
mean number of MPO positive cells ([2]; SITx + CO, 24 hours after SITx, not statistically significant (p=0.08, n=6)): decreased
Inflammatory infiltrates ([2]; SITx + CO, Table 2): 21 ± 3.2 /200x field
geometric center (GC) ([3]; IM rats, 250 ppm for 1 hr only prior to surgery): 7.2±0.3
geometric center (GC) ([3]; IM rats, 250 ppm pretreatment for 3 hr): 8.6±0.3
geometric center (GC) ([3]; IM rats, 250 ppm, 1 hr pretreatment followed by 24 hr post-treatment): 8.2±0.4
geometric center (GC) ([3]; IM rats, pre-treating with 30 ppm): 7.0±0.2
geometric center (GC) ([3]; IM rats, pre-treating with 75 ppm): 8.8±0.1
geometric center (GC) ([3]; IM rats, pre-treating with 125 ppm): 8.6±0.4
geometric center (GC) ([3]; unoperated rats, 250 ppm for 24 hr): 8.8±0.4
